For 73 compounds, IC50 results are on record in PubChem BioAssay AID488890 (Southern Research Specialized Biocontainment Screening …, 2010).

Records with an inconclusive call do not appear. Calls of active or inactive are those of the source. No rule for the calls is given here.

This assay concerns Mycobacterium tuberculosis non-replicating, growth inhibition. The experiment in a line: growth inhibition of non-replicating M. tuberculosis (AID 488890).

In general, IC50 refers to the midpoint of a concentration-inhibition curve.

Turning to `CCOC(=O)c1cc(-c2cccc([N+](=O)[O-])c2)on1`, the 50% inhibitory concentration (IC50) is 0.64 µM.

Regarding `COc1ccc(COc2cccc(C=O)c2)cc1`, the IC50 was 25.8 µM (inactive).

Take `COC(=O)COc1cccc(NC(=O)c2ccc(Cl)cc2)c1`: the half-inhibitory concentration (IC50) was 3.98 µM.

For the compound `Cc1ccc(NCCC(=O)c2cccs2)cc1C`, the IC50 is 6.07 µM.

With `CC(=O)OCCNc1cc(SCc2ccco2)c2nonc2c1[N+](=O)[O-]`, the concentration for half-maximal inhibition (IC50) is 3.04 µM.

For the compound `Cc1cccc(NC(=O)c2cc3ccccc3oc2=O)c1`, the IC50 was 10.5 µM (inactive).

Turning to `Cc1ccc2c(C)ccc(O)c2n1`, the IC50 was 5.18 µM.

`CCCCCCCCCCn1ccc(=N)cc1`: the IC50 is 14.5 µM (inactive).

`CCc1ccc(OCCCC(=O)NCc2ccco2)cc1`: the IC50 was 5.18 µM.

For the compound `O=C(N/N=C/c1ccc([N+](=O)[O-])s1)c1ccncc1`, the concentration for half-maximal inhibition (IC50) is 1.77 µM.

With `COC(=O)c1cc(/C=C/c2ccccc2)on1`, the half-maximal inhibitory concentration (IC50) was 2.18 µM.

For `Cc1ccc(-c2nnc(NC(=O)c3ccco3)o2)c(C)c1`, the IC50 is 6.85 µM.

In the case of `COC(=O)COc1ccc(S(=O)(=O)N2CCN(c3ccccc3F)CC2)cc1`, the IC50 is 27.9 µM (inactive).

For the compound `Cc1ccc(-c2nnc(C)c(N3CCCC3)n2)cc1`, the concentration for half-maximal inhibition (IC50) was 8.94 µM.

For the compound `CCOC(=O)C1CCCN(Cc2nc(Cc3ccccc3Cl)no2)C1` (stereo not drawn), the IC50 was 27.1 µM (inactive).

Regarding `CC(=O)N1CCC(=NNC(=O)c2cccs2)CC1`, the IC50 is 20.7 µM (inactive).

Regarding `O=C(c1ccc([N+](=O)[O-])o1)N1CCN(Cc2ccccc2)CC1`, the IC50 was 2.81 µM.

Consider `CC1=CC(C)(C)Nc2ccc(OC(=O)CN3C(=O)c4ccccc4C3=O)cc21`, for which the IC50 was 9.07 µM.

For `O=C(NC1CCCCC1)c1nc2c(nnn2Cc2ccccc2Cl)c(=O)[nH]1`, the half-inhibitory concentration (IC50) is 3.72 µM.

Take `Cc1ccc(-c2nnc(-c3ccccc3)o2)cc1`: the IC50 was 1.71 µM.

As for `CCOC(=O)Nc1cccc(OCC(=O)Nc2ccccc2OC)c1`, the IC50 is 16.6 µM (inactive).

For the compound `CCCCCCCC(=O)N/N=C(/C)c1c(O)cc(C)oc1=O`, the IC50 is 4.26 µM.

For the compound `C=CCN1C(=O)C2(NNc3ccccc3O2)c2ccccc21` (stereo not drawn), the IC50 is 2.25 µM.

Consider `Cc1cccc(OCC(=O)NNC(=O)c2cc3ccccc3oc2=O)c1`, for which the IC50 is 6.13 µM.

On to `CCc1cc(OCCCCNCc2ccccc2)ccc1Cl`, for which the IC50 was 11.3 µM (inactive).

On to `CC(=O)Nc1nc2ccccc2n1Cc1ccc(Cl)cc1`, for which the 50% inhibitory concentration (IC50) was 1.93 µM.

As for `Cc1ccc2nc(NC(=O)COC(=O)c3ccc(Br)o3)sc2c1`, the IC50 is 35.8 µM (inactive).

As to `CCOC(=O)C(=NCCOC)NNc1cc(Cl)ccc1Cl`, the IC50 is 30.4 µM (inactive).

Take `CC(C)OC(=O)c1cc(C(=O)c2cc(Cl)ccc2O)coc1=N`: the IC50 was 4.66 µM.

As to `CCCn1nnnc1NC(=O)COc1ccc(Br)cc1`, the IC50 is 4.62 µM.

With `COc1cc(/C=C/c2ccc3c([N+](=O)[O-])cccc3n2)ccc1OCC(=O)O`, the IC50 is 1.79 µM.

On to `O=C(N/N=C/c1ccc(OC(=O)c2ccco2)cc1)c1ccccn1`, for which the IC50 is 6.05 µM.

As for `N#Cc1ccc(N=c2ssnc2Cl)cc1`, the IC50 is 18.1 µM (inactive).

`S=C(Nc1ccc2c(c1)OCO2)Nc1ccc2c(c1)OCO2`: the IC50 was 12.8 µM (inactive).

Turning to `Cc1cccc(NC(=O)CO/N=C/c2ccc3c(c2)OCO3)c1`, the IC50 was 10.2 µM (inactive).

For the compound `CC1=NN(C(=O)c2csc(C)c2C)C(O)(C(F)(F)F)C1` (stereo not drawn), the IC50 was 0.4 µM.

In the case of `Cc1cccc(N2CCN(Cc3ccc([N+](=O)[O-])o3)CC2)c1C`, the IC50 was 2 µM.

As for `CCCCOc1ccc(-c2nnn(C(C)C(=O)OCC)n2)cc1` (stereo not drawn), the IC50 is 1.57 µM.

On to `CCNc1nc(NC(C)(C)C)nc(N2CCCCC2)n1`, for which the half-inhibitory concentration (IC50) was 9.76 µM.

Turning to `O=C(COC(=O)c1ccccn1)Nc1cccc(Cl)c1Cl`, the IC50 was 6.11 µM.

On to `COc1ccc(C2=NC(=O)/C(=C\c3cc(OC)c(OC)c(OC)c3)O2)cc1`, for which the IC50 was 3.37 µM.

Turning to `COc1ccc(NCC(=O)N2CCCC2)cc1Cl`, the IC50 was 10.8 µM (inactive).

In the case of `CCOCCOC(=O)c1ccc(NC(=O)C2COc3ccccc3O2)cc1` (stereo not drawn), the 50% inhibitory concentration (IC50) is 4.16 µM.

Consider `CCc1cc(C=NC2CCCCC2)c(O)s1`, for which the 50% inhibitory concentration (IC50) was 1.78 µM.

For `CCC(C)NCCOc1ccc(C(C)(C)c2ccccc2)cc1` (stereo not drawn), the IC50 was 10.4 µM (inactive).

Regarding `COC(=O)c1ccc(N2CCN(CCNC(=O)Nc3ccc(OC)cc3)CC2)cc1`, the IC50 is 6.13 µM.

With `COc1cccc(N2C(=O)NC(=O)/C(=C/c3ccc([N+](=O)[O-])s3)C2=O)c1`, the IC50 was 17.1 µM (inactive).

`Cn1c(=O)[nH]c(=O)c2c1nc([N+](=O)[O-])n2Cc1ccccc1`: the IC50 is 4.58 µM.

Take `Cc1cc([N+](=O)[O-])ccc1NC(=O)Nc1ccc(F)cc1F`: the IC50 is 21.9 µM (inactive).

Regarding `CC1=CC2=NC(=O)/C(=C\c3ccc(OC(=O)c4ccco4)cc3)C(=N)N2O1`, the IC50 was 5.99 µM.

`Fc1ccc(-c2nnc(-c3ccc(F)cc3)o2)cc1`: the half-inhibitory concentration (IC50) is 8.38 µM.

For the compound `CCOC(=O)C1=C(c2ccccc2)NC(N)=NC1c1ccc(OCc2ccc(C(=O)OC)cc2)cc1` (stereo not drawn), the IC50 is 5.85 µM.

As to `Cc1ccc(CO/N=C/c2c(O)cc(C)oc2=O)cc1`, the IC50 was 16.6 µM (inactive).

For `COc1ccc(C(=O)CCS(=O)(=O)c2ccc(C)cc2)cc1OC`, the IC50 was 4.05 µM.

With `c1ccc(-c2noc(CC3CCCCC3)n2)nc1`, the IC50 is 1.18 µM.

Regarding `Cc1cc(C)nc(Sc2ncnc(N)c2[N+](=O)[O-])n1`, the IC50 was 10.7 µM (inactive).

For the compound `O=C(NCc1ccc2c(c1)OCO2)c1ccc(Cl)s1`, the half-inhibitory concentration (IC50) is 1.73 µM.

As for `Cc1ccc(-n2cc(CNCCn3nc(C)cc3C)c(-c3ccc(F)cc3)n2)cc1`, the IC50 is 6.05 µM.

Consider `COc1cc(CNC(C)(C)CO)cc(Br)c1OCc1ccc(Cl)cc1Cl`, for which the IC50 was 10 µM (inactive).

On to `CCCCSc1nnc(-c2cc(Br)ccc2N)c(=O)[nH]1`, for which the IC50 was 12.6 µM (inactive).

Turning to `CCC1CCc2sc(C(=O)NNC(=O)c3ccncc3)cc2C1` (stereo not drawn), the IC50 was 1.97 µM.

As to `CCOC(=O)C1CCCc2c1[nH]c1c(C(N)=O)cccc21` (stereo not drawn), the concentration for half-maximal inhibition (IC50) was 9.99 µM.

Take `CCCn1c(NC(=O)c2ccc([N+](=O)[O-])o2)nc2ccccc21`: the IC50 was 7.64 µM.

`CN1/C(=C\C(=O)COC(=O)c2ccc([N+](=O)[O-])o2)C(C)(C)c2ccccc21`: the concentration for half-maximal inhibition (IC50) is 3.61 µM.

Regarding `O=C(OCn1nnc2ccccc2c1=O)c1ccc(N2CCOCC2)c([N+](=O)[O-])c1`, the IC50 was 22.8 µM (inactive).

In the case of `O=C(OCc1ccc([N+](=O)[O-])cc1)c1ccc2ccccc2n1`, the IC50 is 4.44 µM.

For the compound `O=C(COc1ccc(F)cc1)Nc1ccc2c(c1)OCCO2`, the IC50 is 6.38 µM.

Take `CC(C)NC(=O)C1COc2ccccc2O1` (stereo not drawn): the IC50 is 36.5 µM (inactive).

In the case of `NC(=O)C1CCN(C2CC(=O)NC2=O)CC1` (stereo not drawn), the IC50 was 15.7 µM (inactive).

With `O=C(CCc1ccccc1)N/N=C/c1cc(Br)ccc1O`, the half-maximal inhibitory concentration (IC50) was 0.44 µM.

For the compound `CCOC(=O)COc1ccc2c3c(c(=O)oc2c1C)CCC3`, the IC50 is 14 µM (inactive).

As for `CCOC(=O)c1ccc(NC(=O)NS(=O)(=O)c2ccc(C)cc2)cc1`, the IC50 was 3.31 µM.

Consider `CC1(C(=O)NC(=S)NNC(=O)c2ccncc2)CCCCC1`, for which the IC50 was 0.94 µM.
